From PubChem BioAssay (NCI)
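Growth conditions: 96-well plates. Treatment: test compound, 48 hours, 5 concentrations. Analysis: linear interpolation between bracketing concentrations; unreached endpoints set to highest concentration. Definition used: TGI = concentration required for complete inhibition of growth.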

What was measured:
Test in all cases: NCI-60 cell line screen, 48 h
[1] = test system: 786-0 renal
[2] = test system: HOP-92 NSCLC
[3] = test system: KM12 colon
[4] = test system: NCI-H23 lung
[5] = test system: OVCAR-3 ovarian
[6] = test system: OVCAR-8 ovarian
[7] = test system: SF-295 CNS
[8] = test system: TK-10 renal
[9] = test system: UACC-62 melanoma

| SMILES | TGI [1] [µM] | TGI [2] [µM] | TGI [3] [µM] | TGI [4] [µM] | TGI [5] [µM] | TGI [6] [µM] | TGI [7] [µM] | TGI [8] [µM] | TGI [9] [µM] |
| --- | --- | --- | --- | --- | --- | --- | --- | --- | --- |
| CCOC(=O)C(=O)Nc1ccccc1CC | > 100 | > 100 | > 100 | > 100 | > 100 | > 100 | > 100 | > 100 | > 100 |
| CN(C)CCC1(C2=CCCC2)CC/C(=C\c2ccc(Cl)cc2)C1=O (centres undefined) | 15.2 | 15.4 | 23.6 | 29.3 | 26.8 | 25.3 | 20.8 | 23.3 | 9.05 |
| O=C1C2C3C=C4c5ccccc5N(c5ccccc5)C4(C2C(=O)N1c1ccc([N+](=O)[O-])cc1)[C@H]1C(=O)N(c2ccc([N+](=O)[O-])cc2)C(=O)[C@@H]31 (some centres undefined) | > 100 | > 100 | > 100 | > 100 | > 100 | > 100 | > 100 | > 100 | > 100 |
| c1ccc(C2N3CCCCC3[C@@H]3c4[nH]c5ccccc5c4CCN23)nc1 (some centres undefined) | > 100 | > 100 | – | > 100 | > 100 | > 100 | > 100 | > 100 | > 100 |
| Cc1cc(N(CCC#N)CCC#N)ccc1/C=C(\NC(=O)/C=C/c1ccccc1)C(N)=O | > 100 | – | > 100 | > 100 | > 100 | > 100 | > 100 | > 100 | > 100 |
| CN(Cc1ccccc1)C(=O)c1ccccc1C(=O)O | > 100 | > 100 | > 100 | > 100 | > 100 | > 100 | > 100 | > 100 | – |
| O=C1c2ccccc2C(=O)C1(O)c1c[nH]c2ccccc12 | > 100 | > 100 | > 100 | > 100 | > 100 | > 100 | > 100 | > 100 | > 100 |
| CC1=[N+]([O-])c2ccccc2C(=O)C1=O | > 100 | > 100 | > 100 | > 100 | > 100 | > 100 | > 100 | > 100 | > 100 |
| Cc1[nH]c(=O)nc2[nH][nH]c(=O)c12 | > 100 | > 100 | > 100 | > 100 | > 100 | > 100 | > 100 | > 100 | > 100 |
| COC(=O)C(CC(=O)Nc1ccc(C)cc1)C(=O)C(=O)Nc1c(C(C)C)cccc1C(C)C (centres undefined) | > 100 | > 100 | – | > 100 | – | > 100 | – | > 100 | > 100 |
| CCOC(=O)CCC(=O)C1c2cccc(O)c2C(=O)c2c(O)cc(C)cc21 (centres undefined) | 2.63 | 3.04 | 0.563 | 2.34 | 1.18 | 2.01 | 0.878 | 3.39 | 1.48 |
| COc1cc(/C=C/c2ccc(OC)c(O)c2)cc(OC)c1 | 32.7 | 29.4 | 28.3 | 12.5 | 4.88 | 36.1 | 4.54 | 91.4 | 15.1 |
| CCCC1=C(CC)C(C(=O)Nc2c(C)cccc2C)=NC(S)N1 (centres undefined) | > 100 | > 100 | > 100 | > 100 | > 100 | > 100 | > 100 | > 100 | > 100 |
| COc1cc2[nH]c3c(c2cc1OC)CCN[C@]31CC[C@]2(CC3c4c(cc(OC)c(O)c42)CCN3C)C[C@H]1OC (some centres undefined) | 32.6 | 75.7 | 35.6 | > 100 | 46.2 | 50 | 36.4 | 51.1 | 49 |
| CNC(=S)/N=C(\N)N(C)C | > 100 | > 100 | > 100 | > 10 | > 100 | > 100 | > 100 | > 100 | > 100 |
| O=C(/C=C/c1ccc(Cl)c(Cl)c1)c1ccc2ccccc2c1 | > 100 | > 100 | > 100 | > 100 | > 100 | > 100 | > 100 | > 100 | > 100 |
| [N-]=[N+]=C1C(=O)NN=C1c1ccccc1 | > 100 | > 100 | > 100 | > 100 | > 100 | > 100 | > 100 | > 100 | – |
| COC(=O)C(Cc1nc2ccccc2[nH]c1=O)C(NO)C(=O)Nc1c(Cl)cc([N+](=O)[O-])cc1Cl (centres undefined) | > 100 | 25.7 | > 100 | 61.1 | > 100 | > 100 | > 100 | – | 34.5 |
| Clc1cc(Cl)c2ns[s+]c2c1Cl | > 100 | – | > 100 | 85.2 | > 100 | > 100 | > 100 | > 100 | > 100 |
| CCOC(=O)N[C@@H]1C(CC(=O)OC)O[C@H]2OC(C)(C)O[C@H]21 (some centres undefined) | > 100 | > 100 | > 100 | > 100 | > 100 | – | > 100 | – | > 100 |
